Each structure is given as a SMILES string. Positions of bridges follow the written chain, without caps; N, C: chain ends. Non-standard residues stand in square brackets, D forms with d. Residues, ends and D or L forms follow the SMILES beside them.

For orientation: Ki means a dissociation constant, usually derived from enzyme kinetics or from competition with a known ligand. Lower therefore signals tighter binding.

Holding throughout (assay type): cell-based
In test [1] the target is Somatostatin receptor type 4 (Homo sapiens, UniProt P31391). Nature of the test: Binding affinity towards human Somatostatin receptor type 4 (sst4) using Tyr11-[125I]-SRIF as radioligand was determined in CHO cells. To be noted: for Log Ki: cho.
Sequence of Somatostatin receptor type 4 (P31391 whole entry): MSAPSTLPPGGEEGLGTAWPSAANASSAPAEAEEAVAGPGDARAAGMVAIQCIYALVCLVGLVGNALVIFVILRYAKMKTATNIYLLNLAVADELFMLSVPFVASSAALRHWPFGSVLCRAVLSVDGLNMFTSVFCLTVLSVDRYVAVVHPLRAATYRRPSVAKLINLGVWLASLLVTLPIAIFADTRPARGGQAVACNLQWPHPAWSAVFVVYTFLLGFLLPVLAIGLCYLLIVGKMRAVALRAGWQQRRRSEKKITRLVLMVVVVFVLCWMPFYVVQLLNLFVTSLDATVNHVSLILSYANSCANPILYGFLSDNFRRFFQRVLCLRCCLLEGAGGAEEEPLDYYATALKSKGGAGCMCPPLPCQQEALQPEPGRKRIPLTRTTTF
The target of test [2] is Somatostatin receptor type 1 (Homo sapiens, UniProt P30872). The experiment in a line: Binding affinity towards human Somatostatin receptor type 1 (sst1) using Tyr11-[125I]-SRIF as radioligand was determined in CHO cells.
Sequence of Somatostatin receptor type 1 (P30872 whole entry): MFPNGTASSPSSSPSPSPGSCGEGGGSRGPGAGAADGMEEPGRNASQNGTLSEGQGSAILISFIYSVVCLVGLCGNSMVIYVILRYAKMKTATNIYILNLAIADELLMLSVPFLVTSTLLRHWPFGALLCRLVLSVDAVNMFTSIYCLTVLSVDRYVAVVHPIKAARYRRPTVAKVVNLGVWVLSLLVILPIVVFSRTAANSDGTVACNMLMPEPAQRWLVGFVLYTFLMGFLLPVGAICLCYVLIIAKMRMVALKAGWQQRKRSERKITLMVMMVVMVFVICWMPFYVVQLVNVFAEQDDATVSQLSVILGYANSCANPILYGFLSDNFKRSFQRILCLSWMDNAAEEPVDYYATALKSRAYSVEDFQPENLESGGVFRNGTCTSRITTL
For test [3], the target named is Somatostatin receptor type 5 (Homo sapiens, UniProt P35346). The experiment in a line: Binding affinity towards human Somatostatin receptor type 5 (sst5) using Tyr11-[125I]-SRIF as radioligand was determined in COS cell.
Sequence of Somatostatin receptor type 5 (P35346 whole entry): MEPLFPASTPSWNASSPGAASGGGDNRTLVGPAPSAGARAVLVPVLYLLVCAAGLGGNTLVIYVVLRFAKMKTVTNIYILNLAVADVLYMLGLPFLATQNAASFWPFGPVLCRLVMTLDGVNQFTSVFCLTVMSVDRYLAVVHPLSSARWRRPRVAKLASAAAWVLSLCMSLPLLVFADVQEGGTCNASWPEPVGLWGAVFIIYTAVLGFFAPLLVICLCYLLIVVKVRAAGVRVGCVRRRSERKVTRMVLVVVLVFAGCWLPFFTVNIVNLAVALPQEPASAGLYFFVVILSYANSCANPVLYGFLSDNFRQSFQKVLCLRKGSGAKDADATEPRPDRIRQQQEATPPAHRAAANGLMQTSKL
In test [4] the target is Somatostatin receptor type 2 (Homo sapiens, UniProt P30874). The experiment in a line: Binding affinity towards human Somatostatin receptor type 2 (sst2) using Tyr11-[125I]-SRIF as radioligand was determined in CHO cells.
Sequence of Somatostatin receptor type 2 (P30874 whole entry): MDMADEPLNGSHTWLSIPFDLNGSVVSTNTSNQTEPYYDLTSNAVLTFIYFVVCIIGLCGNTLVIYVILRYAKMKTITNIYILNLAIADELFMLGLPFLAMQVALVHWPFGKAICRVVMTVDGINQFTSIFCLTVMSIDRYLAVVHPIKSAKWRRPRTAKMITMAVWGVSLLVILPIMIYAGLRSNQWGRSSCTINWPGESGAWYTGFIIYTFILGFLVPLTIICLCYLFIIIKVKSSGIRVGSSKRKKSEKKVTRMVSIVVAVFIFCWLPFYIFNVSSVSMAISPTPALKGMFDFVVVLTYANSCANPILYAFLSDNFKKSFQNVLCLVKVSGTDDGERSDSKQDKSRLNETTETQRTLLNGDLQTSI
Test [5] has as its target Somatostatin receptor type 3 (Homo sapiens, UniProt P32745). The experiment in a line: Binding affinity towards human Somatostatin receptor type 3 (sst3) using Tyr11-[125I]-SRIF as radioligand was determined in CHO cells.

Sequence of Somatostatin receptor type 3 (P32745 whole entry): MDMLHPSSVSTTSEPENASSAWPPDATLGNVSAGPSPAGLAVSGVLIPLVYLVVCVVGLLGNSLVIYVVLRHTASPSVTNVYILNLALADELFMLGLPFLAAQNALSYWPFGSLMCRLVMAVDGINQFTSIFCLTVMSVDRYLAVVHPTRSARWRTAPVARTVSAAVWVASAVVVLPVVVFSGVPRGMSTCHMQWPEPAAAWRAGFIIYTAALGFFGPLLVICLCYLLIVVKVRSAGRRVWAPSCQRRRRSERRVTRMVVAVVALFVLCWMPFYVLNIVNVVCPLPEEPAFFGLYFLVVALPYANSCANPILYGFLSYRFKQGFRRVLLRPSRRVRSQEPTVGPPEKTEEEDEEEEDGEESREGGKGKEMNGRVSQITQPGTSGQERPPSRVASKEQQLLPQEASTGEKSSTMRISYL

In test [1], `NCCCC[C@@H]1NC(=O)[C@@H](Cc2c[nH]c3ccccc23)NC(=O)[C@H](Cc2c[nH]cn2)NC(=O)[C@@H]2C[C@@H](OC(=O)NCCN)CN2C(=O)[C@H](Cc2ccccc2)NC(=O)[C@H](Cc2ccc(OCc3ccccc3)cc2)NC1=O` had a Log Ki of over -7. The Ki in test [2] is 3.98 nM; in test [3], 3.16 nM; in test [4] it was 0.794 nM; in test [5], 0.794 nM.

On to `NCCCCCNC(=O)O[C@@H]1C[C@H]2C(=O)N[C@@H](Cc3ccccc3)C(=O)N[C@H](Cc3c[nH]c4ccccc34)C(=O)N[C@@H](CCCCN)C(=O)N[C@@H](Cc3ccc(OCc4ccccc4)cc3)C(=O)N[C@@H](Cc3ccccc3)C(=O)N2C1`, for which the Ki in test [1] is 631 nM; in test [2], 10 nM; in test [3], 0.631 nM; in test [4], 3.16 nM; in test [5], 2 nM.

`NCCCC[C@@H]1NC(=O)[C@@H](Cc2c[nH]c3ccccc23)NC(=O)[C@H](CCCN=C(N)N)NC(=O)[C@@H]2C[C@@H](OC(=O)NCCN)CN2C(=O)[C@H](Cc2ccccc2)NC(=O)[C@H](Cc2ccc(OCc3ccccc3)cc2)NC1=O`: the Ki in test [1] was 316 nM; in test [2] it was 6.31 nM; in test [3], 0.398 nM; in test [4], 10 nM; in test [5] it was 20 nM.

`NCCCC[C@@H]1NC(=O)[C@@H](Cc2c[nH]c3ccccc23)NC(=O)[C@H](Cc2ccc(O)cc2)NC(=O)[C@@H]2C[C@@H](OC(=O)NCCN)CN2C(=O)[C@H](Cc2ccccc2)NC(=O)[C@H](Cc2ccc(OCc3ccccc3)cc2)NC1=O`: the Log Ki in test [1] was over -7. Besides, the Ki in test [2] was 1.58 nM; in test [3] it was 0.251 nM; in test [4], 0.794 nM; in test [5] it was 0.631 nM.

In test [1], `CN(C)CCNC(=O)O[C@@H]1C[C@H]2C(=O)N[C@@H](Cc3ccccc3)C(=O)N[C@H](Cc3c[nH]c4ccccc34)C(=O)N[C@@H](CCCCN)C(=O)N[C@@H](Cc3ccc(OCc4ccccc4)cc3)C(=O)N[C@@H](Cc3ccccc3)C(=O)N2C1` displayed a Log Ki of over -7. In addition, the Ki in test [2] is 1.58 nM; in test [3], 0.1 nM; in test [4] it was 0.501 nM; in test [5], 0.316 nM.

`C[C@@H](O)[C@@H]1NC(=O)[C@H](CCCCN)NC(=O)[C@@H](Cc2c[nH]c3ccccc23)NC(=O)[C@H](Cc2ccccc2)NC(=O)[C@@H]2CCCN2C(=O)[C@H](Cc2ccccc2)NC1=O` had a Log Ki in test [1] of over -7.

Take `C[C@H](N)C(=O)N[C@@H](C)C(=O)N[C@H]1CSSC[C@@H](C(N)=O)NC(=O)[C@H](CO)NC(=O)[C@H]([C@@H](C)O)NC(=O)[C@H](Cc2ccccc2)NC(=O)[C@H]([C@@H](C)O)NC(=O)[C@H](CCCCN)NC(=O)[C@H](Cc2c[nH]c3ccccc23)NC(=O)[C@H](Cc2ccccc2)NC(=O)[C@H](Cc2ccccc2)NC(=O)[C@H](CC(N)=O)NC(=O)[C@H](CCCCN)NC1=O` (H-AACKNFFWKTFTSC-NH2; disulfide 3-14): the Log Ki in test [1] is over -9.7. The inhibition constant Ki in test [2] was 0.2 nM; in test [3] it was 1.26 nM; in test [4], 0.158 nM; in test [5] it was 0.794 nM.

In test [1], `C[C@H](N)C(=O)NCC(=O)N[C@H]1CSSC[C@@H](C(N)=O)NC(=O)[C@H](CO)NC(=O)[C@H]([C@@H](C)O)NC(=O)[C@H](Cc2ccccc2)NC(=O)[C@H]([C@@H](C)O)NC(=O)[C@H](CCCCN)NC(=O)[C@H](Cc2c[nH]c3ccccc23)NC(=O)[C@H](Cc2ccccc2)NC(=O)[C@H](Cc2ccccc2)NC(=O)[C@H](CC(N)=O)NC(=O)[C@H](C)NC1=O` (H-AGCANFFWKTFTSC-NH2; disulfide 3-14) had a Log Ki of over -9.5. The Ki in test [2] is 0.794 nM; in test [3], 1 nM; in test [4] it was 0.501 nM; in test [5] it was 2.51 nM.

In test [1], `C[C@H](N)C(=O)NCC(=O)N[C@H]1CSSC[C@@H](C(N)=O)NC(=O)[C@H](CO)NC(=O)[C@H]([C@@H](C)O)NC(=O)[C@H](Cc2ccccc2)NC(=O)[C@H]([C@@H](C)O)NC(=O)[C@H](CCCCN)NC(=O)[C@H](Cc2c[nH]c3ccccc23)NC(=O)[C@H](Cc2ccccc2)NC(=O)[C@H](Cc2ccccc2)NC(=O)[C@H](C)NC(=O)[C@H](CCCCN)NC1=O` (H-AGCKAFFWKTFTSC-NH2; disulfide 3-14) returned a Log Ki of over -9.7. Also, the Ki is 0.251 nM in test [2], 0.158 nM in test [3], 0.126 nM in test [4] and 0.631 nM in test [5].

Molecule `C[C@H](N)C(=O)NCC(=O)N[C@H]1CSSC[C@@H](C(N)=O)NC(=O)[C@H](CO)NC(=O)[C@H]([C@@H](C)O)NC(=O)[C@H](Cc2ccccc2)NC(=O)[C@H]([C@@H](C)O)NC(=O)[C@H](CCCCN)NC(=O)[C@H](Cc2c[nH]c3ccccc23)NC(=O)[C@H](Cc2ccccc2)NC(=O)[C@H](C)NC(=O)[C@H](CC(N)=O)NC(=O)[C@H](CCCCN)NC1=O` (H-AGCKNAFWKTFTSC-NH2; disulfide 3-14) registered a Log Ki in test [1] of over -7.1. The Ki in test [2] is 126 nM; in test [3], 100 nM; in test [4], 20 nM; in test [5] it was 200 nM.

In test [1], `C[C@H](N)C(=O)NCC(=O)N[C@H]1CSSC[C@@H](C(N)=O)NC(=O)[C@H](CO)NC(=O)[C@H]([C@@H](C)O)NC(=O)[C@H](Cc2ccccc2)NC(=O)[C@H]([C@@H](C)O)NC(=O)[C@H](CCCCN)NC(=O)[C@H](Cc2c[nH]c3ccccc23)NC(=O)[C@H](C)NC(=O)[C@H](Cc2ccccc2)NC(=O)[C@H](CC(N)=O)NC(=O)[C@H](CCCCN)NC1=O` (H-AGCKNFAWKTFTSC-NH2; disulfide 3-14) showed a Log Ki of over -8.7. The Ki in test [2] is 20 nM; in test [3], 79.4 nM; in test [4] it was 20 nM; in test [5], 25.1 nM.

Take `C[C@H](N)C(=O)NCC(=O)N[C@H]1CSSC[C@@H](C(N)=O)NC(=O)[C@H](CO)NC(=O)[C@H]([C@@H](C)O)NC(=O)[C@H](Cc2ccccc2)NC(=O)[C@H]([C@@H](C)O)NC(=O)[C@H](CCCCN)NC(=O)[C@H](C)NC(=O)[C@H](Cc2ccccc2)NC(=O)[C@H](Cc2ccccc2)NC(=O)[C@H](CC(N)=O)NC(=O)[C@H](CCCCN)NC1=O` (H-AGCKNFFAKTFTSC-NH2; disulfide 3-14): the Ki in test [1] was over 1000 nM; in test [2], 1000 nM; in test [3], 79.4 nM; in test [4] it was 1000 nM; in test [5], 1000 nM.

For the molecule `C[C@H](N)C(=O)NCC(=O)N[C@H]1CSSC[C@@H](C(N)=O)NC(=O)[C@H](CO)NC(=O)[C@H]([C@@H](C)O)NC(=O)[C@H](Cc2ccccc2)NC(=O)[C@H]([C@@H](C)O)NC(=O)[C@H](C)NC(=O)[C@H](Cc2c[nH]c3ccccc23)NC(=O)[C@H](Cc2ccccc2)NC(=O)[C@H](Cc2ccccc2)NC(=O)[C@H](CC(N)=O)NC(=O)[C@H](CCCCN)NC1=O` (H-AGCKNFFWATFTSC-NH2; disulfide 3-14), the inhibitory constant (Ki) was over 1000 nM in test [1]; 1000 nM in test [2]; 100 nM in test [3]; 1000 nM in test [4]; 1000 nM in test [5].

As for `C[C@H](N)C(=O)NCC(=O)N[C@H]1CSSC[C@@H](C(N)=O)NC(=O)[C@H](CO)NC(=O)[C@H]([C@@H](C)O)NC(=O)[C@H](Cc2ccccc2)NC(=O)[C@H](C)NC(=O)[C@H](CCCCN)NC(=O)[C@H](Cc2c[nH]c3ccccc23)NC(=O)[C@H](Cc2ccccc2)NC(=O)[C@H](Cc2ccccc2)NC(=O)[C@H](CC(N)=O)NC(=O)[C@H](CCCCN)NC1=O` (H-AGCKNFFWKAFTSC-NH2; disulfide 3-14), the Log Ki in test [1] was over -8.4. Besides, the Ki in test [2] was 6.31 nM; in test [3] it was 0.631 nM; in test [4], 1 nM; in test [5] it was 1.58 nM.

`C[C@H](N)C(=O)NCC(=O)N[C@H]1CSSC[C@@H](C(N)=O)NC(=O)[C@H](CO)NC(=O)[C@H]([C@@H](C)O)NC(=O)[C@H](C)NC(=O)[C@H]([C@@H](C)O)NC(=O)[C@H](CCCCN)NC(=O)[C@H](Cc2c[nH]c3ccccc23)NC(=O)[C@H](Cc2ccccc2)NC(=O)[C@H](Cc2ccccc2)NC(=O)[C@H](CC(N)=O)NC(=O)[C@H](CCCCN)NC1=O` (H-AGCKNFFWKTATSC-NH2; disulfide 3-14): in test [1], the Log Ki is over -9. For the same molecule, the inhibitory constant (Ki) in test [2] is 0.631 nM; in test [3], 6.31 nM; in test [4], 6.31 nM; in test [5] it was 7.94 nM.

Consider `CC(C)[C@@H]1NC(=O)[C@H](CCCCN)NC(=O)[C@@H](Cc2c[nH]c3ccccc23)NC(=O)[C@H](Cc2ccc(O)cc2)NC(=O)[C@@H](NC(=O)[C@H](N)Cc2ccc3ccccc3c2)CSSC[C@@H](C(=O)N[C@H](C(N)=O)[C@@H](C)O)NC1=O` [LANREOTIDE], for which the Ki in test [2] was 501 nM.

With `CC(C)[C@@H]1NC(=O)[C@H](CCCCN)NC(=O)[C@@H](Cc2c[nH]c3ccccc23)NC(=O)[C@H](Cc2ccc(O)cc2)NC(=O)[C@H](C)N(C)C(=O)[C@H](Cc2ccccc2)NC1=O` [SEGLITIDE], the results for the Ki in test [2], in test [3] and in test [5] were over 1000 nM, 12.6 nM and 31.6 nM, respectively.

Take `CC(C)[C@@H]1NC(=O)[C@H](CCCCN)NC(=O)[C@@H](Cc2c[nH]c3ccccc23)NC(=O)[C@H](Cc2ccc(O)cc2)NC(=O)[C@@H](NC(=O)[C@H](N)Cc2ccccc2)CSSC[C@@H](C(=O)N[C@@H](Cc2c[nH]c3ccccc23)C(N)=O)NC1=O` [VAPREOTIDE] (H-[dF]CY[dW]KVCW-NH2; disulfide 2-7): the Ki was 158 nM in test [1], 158 nM in test [2], 0.0794 nM in test [4] and 20 nM in test [5].

These data come from ChEMBL document CHEMBL1145006 (J Med Chem, 2003).
